The values that follow come from publication PMC4976878 (PLoS ONE, 2016).

Assay [1] deals with T1, BmMetRS (Brucella melitensis methionyl-tRNA-synthetase) (Brucella abortus, UniProt Q2YQ76).
T1 construct: gene metG
Kind of assay: biochemical.

Assay [2] addresses T2, human mitochondrial MetRS (Homo sapiens, UniProt Q96GW9).
T2 construct: gene MARS2
T2 sequence (Q96GW9 30-593): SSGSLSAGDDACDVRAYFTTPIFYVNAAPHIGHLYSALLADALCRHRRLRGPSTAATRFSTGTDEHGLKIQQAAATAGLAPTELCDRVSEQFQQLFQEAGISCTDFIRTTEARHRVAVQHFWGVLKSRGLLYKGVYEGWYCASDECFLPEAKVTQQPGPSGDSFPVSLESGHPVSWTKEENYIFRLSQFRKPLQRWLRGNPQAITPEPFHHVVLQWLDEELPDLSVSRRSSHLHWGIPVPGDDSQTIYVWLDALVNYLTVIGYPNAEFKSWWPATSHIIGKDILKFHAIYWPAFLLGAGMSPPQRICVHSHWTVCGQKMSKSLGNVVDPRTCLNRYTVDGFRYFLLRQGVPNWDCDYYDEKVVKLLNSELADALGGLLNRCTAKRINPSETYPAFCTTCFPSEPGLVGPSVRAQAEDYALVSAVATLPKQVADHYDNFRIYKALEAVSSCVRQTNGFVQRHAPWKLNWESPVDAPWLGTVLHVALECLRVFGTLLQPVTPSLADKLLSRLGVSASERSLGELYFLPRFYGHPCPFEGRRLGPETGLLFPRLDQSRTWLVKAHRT
Kind of assay: enzyme inhibition, assay not given. The class given is biochemical.

T1 sequence (Q2YQ76 1-515 limits assumed): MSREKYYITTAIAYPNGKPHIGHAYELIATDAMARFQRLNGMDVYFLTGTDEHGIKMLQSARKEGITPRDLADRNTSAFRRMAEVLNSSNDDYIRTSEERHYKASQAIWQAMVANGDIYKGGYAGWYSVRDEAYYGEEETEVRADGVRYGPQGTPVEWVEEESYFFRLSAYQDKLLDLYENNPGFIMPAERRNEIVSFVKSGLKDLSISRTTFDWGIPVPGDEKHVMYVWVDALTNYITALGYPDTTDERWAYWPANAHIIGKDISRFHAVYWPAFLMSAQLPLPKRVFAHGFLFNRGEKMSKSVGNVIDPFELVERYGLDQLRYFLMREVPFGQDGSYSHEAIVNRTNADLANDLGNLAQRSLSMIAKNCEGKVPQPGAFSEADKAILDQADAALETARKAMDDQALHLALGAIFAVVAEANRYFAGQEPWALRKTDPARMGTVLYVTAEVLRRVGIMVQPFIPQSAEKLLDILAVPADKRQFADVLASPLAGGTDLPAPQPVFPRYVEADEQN

For `O=c1cc(NCCCNCc2cc(Cl)cc(Cl)c2)[nH]c2ccccc12` [compound 1312, 1312], the results for the IC50 in assay [1] and in assay [2] were 6 nM and “the IC50 values from human mitochondrial MetRS is very similar to that of BmMetRS”, respectively.

Turning to `COc1cc(Cl)cc(CNCCCNC(=O)Nc2ccccc2)c1` [compound 1415, 1415], the IC50 is 1660 nM in assay [1] and “The characteristics of each inhibitor experimentally measured against human mitochondria MetRS” in assay [2].

Take `O=C(NCCCNCc1cc(Cl)cc(Cl)c1)Nc1ccsc1` [compound 1433, 1433]: the IC50 in assay [1] is 272 nM; in assay [2] it was “The characteristics of each inhibitor experimentally measured against human mitochondria MetRS”.

Usually IC50 stands for the midpoint of a concentration-inhibition curve. Low readings indicate greater potency in that assay, high ones weaker potency in that assay.
